Key:
[1] = target: VHL Elongin B/C complex (Homo sapiens (Human), UniProt P40337); experiment: Fluorescence Polarization (FP) VHL Binding Assay; details: VHL binding, FP assay; geometric mean where more than one measurement
Description: The binding of test compounds to the VHL Elongin B/C complex was measured using a fluorescence polarization tracer competition assay. The VHL/Elongin B/C protein complex used in the assay was generated as follows. The coding region for amino acids E55-D213 of human VHL with N-terminal His6 tag with a TEV-protease cleavage site was co-expressed with Elongin B (residues M1-Q118) and Elongin C (Residues M17-C112) in E. coli. […] The purified VHL/Elongin B/C complex was dialyzed into formulation buffer: 20 mM Bis-Tris pH7.0, 150 mM NaCl, 1 mM DTT. A VHL fluorescence polarization probe (prepared in Example 91), consisted of a VHL ligand coupled to carboxytetramethylrhodamine (TAMRA); […] Compounds were prepared as a serial dilution in DMSO at a concentration 25-fold higher than the final desired concentration and acoustically dispensed (400 nl) into a ProxiPlate-384 Plus F, Black 384-shallow well Microplate (Part Number 6008260). DMSO was dispensed into wells designated for “VHL control” (without compound) wells. The “Assay Buffer” consisted of 50 mM Tris pH 8.0, 120 mM NaCl, 0.005% Nonidet P-40, and 1% DMSO (v/v). Assay Buffer containing […] VHL Elongin B/C complex was prepared and 5 μl dispensed using a BioRapTR (Beckman Coulter) into each well of the assay plate. Assay Buffer was also dispensed into “no VHL control” wells using the same method. A “pre-assay” fluorescence measurement was made using an Infinite® M1000 (Tecan) plate reader (Excitation 530 nm, Emission 574 nm, Bandwidth 10 nm). Assay Buffer containing 3.34 nM of the VHL FP probe was prepared in Assay Buffer and 5 μl dispensed into each well of the assay plate using a BioRapTR (Beckman Coulter). The final VHL/Elongin B/C protein concentration is 2.64 nM and the final probe concentration is 1.67 nM. Assay plates were briefly centrifuged and incubated for 1 hour at room temperature. “Post-assay” fluorescence polarization measurements were made as described for the “pre-assay” fluorescence measurement. Fluorescence polarization was calculated for each sample; taking into account the “pre-assay” fluorescence measurements and subtracting the fluorescence signal of the compound/VHL only (“pre-assay”) measurements from the “post-assay” fluorescence polarization measurements, for each plane of polarization. The data were analyzed using Genedata Screener software and normalized to the “no VHL control” and “VHL control” (without compound). IC50 values were calculated using a four parameter curve fit (Robust method).

[2] = target: VHL co-expressed with Elongins B and C (Homo sapiens (Human), UniProt P40337); experiment: Surface Plasmon Resonance Assay; type: binding; details: SPR measured VHL affinity; geometric mean where more than one measurement
Description: Using a Biacore T200, […] tagged VHL co-expressed with Elongins B and C were immobilized to a Biacore SA chip in running buffer without DMSO. Compounds were tested individually at varying concentrations in running buffer (50 mM HEPES pH 7.2, 150 mM NaCl, 0.5 mM TCEP, 0.001% Tween 20, 0.2% PEG3350, 2% DMSO) at 20° C. Sensorgrams were run in order from low to high concentration using a flow rate of 80 μL/min. Association and disassociation times were varied depending on the estimated potency of the compound tested. […] Galdeano et al, J. Med. Chem. 2014, 57, 8657-8663, herein incorporated by reference) which retained greater than 75% of the activity over the course of the run. Analysis of the binding curves and determination of the kinetic parameters were done using evaluation software (Version 2.0, Biacore).

[3] = target: NanoLuc VHL fusion protein (Homo sapiens (Human), UniProt P40337); experiment: VHL HEK-293 BRET Assay (NanoBRET Target Engagement); type: cell-based; details: geometric mean where more than one measurement
Description: The VHL NanoBRET™ Target Engagement Assay analyzes the apparent affinity of test compounds for VHL in cells by competitive displacement of a VHL NanoBRET™ tracer reversibly bound to a NanoLuc® VHL fusion protein stably expressed in the cells. Test compounds were transferred to the assay plate (384 Well White Non-Binding Corning Assay Plates (Corning-3574)) using an Echo 555 Liquid Handler (Labcyte) in 2.5 nL increments and, as appropriate, intermediate stock concentrations of compounds, in order to prepare a titration series. 50 nL of control compound (10 mM; parental unlabeled VHL antagonist; see structure below) and 50 nL of DMSO (negative control) were dispensed into the appropriate control wells. DMSO was backfilled to a final volume of 50 nL as required. 50 nl per well of 1 mM VHL NanoBRET™ Tracer in DMSO (NanoBRET™ Tracer-PEG2-590 (see structure below)) was transferred into each well using an Echo 555 (ultimately yielding a final concentration of 1 uM). HEK 293 RT VHL-NanoLuc® stable cells were cultured in DMEM High Glucose with Pyruvate, 10% fetal bovine serum, 2 mg/mL of Geneticin Selective Antibiotic (50 mg/ml) and 2 mM HEPES (1 M). Cells were seeded in Opti-MEM (Life Technologies-11058-021), 1.7×10^5 cells/mL, 40 μl per well into the assay plate, centrifuged at 500 rpm for 30 seconds and incubated for 2 hours. Max Signal control wells consisted of DMSO only treated wells. Minimum Signal control wells contained of 10 uM parental unlabeled VHL antagonist (control compound—see structure below). 3× Complete Substrate plus Inhibitor Solution was prepared in Opti-MEM (consists of a 1:166 dilution of NanoBRET™ Nano-Glo® Substrate plus a 1:500 dilution of Extracellular NanoLuc® Inhibitor in Opti-MEM), and 20 ul was dispensed into each well of the 384-well plate and centrifuged at 1000 rpm for 1 minute, then incubated for 2 minutes at room temperature. Background Signal control wells were prepared without tracer for background correction steps. Plates were read using a PerkinElmer Envision Reader (model 2104-0020) equipped with Luminescence option (Mirror: BRET2 Enh (PE Barcode 659), Emission Filter: Omega 610LP (Barcode 504), 2nd Emission Filter: Umbelliferone 460 (Barcode 207), Measurement height: 6.5 mm, Measurement time: 1 s). The raw BRET ratio values were calculated by dividing the acceptor emission value (610 nm) by the donor emission value (460 nm) for each sample. To correct for background, the BRET ratio in the absence of tracer (average of no-tracer control samples) was subtracted from the BRET ratio of each sample. Raw BRET units were converted to milliBRET units (mBU) by multiplying each raw BRET value by 1,000. The normalized NanoBRET™ signal was calculated relative to the Max Signal control wells (DMSO treated control wells) and the Minimum Signal control wells. Percentage inhibition was calculated relative to the Minimum Signal control and Maximum Signal control wells. IC50 values were derived by four parameter curve fitting using the Robust method.

Sequence of VHL co-expressed with Elongins B and C (P40337 whole entry, looked up): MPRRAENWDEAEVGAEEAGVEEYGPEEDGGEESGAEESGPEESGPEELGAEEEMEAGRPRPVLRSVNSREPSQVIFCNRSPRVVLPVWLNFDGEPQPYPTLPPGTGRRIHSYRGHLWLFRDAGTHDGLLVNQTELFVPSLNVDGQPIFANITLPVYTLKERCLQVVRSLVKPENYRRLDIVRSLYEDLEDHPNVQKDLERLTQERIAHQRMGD
Sequence of VHL co-expressed with Elongins B and C (Q15370 whole entry partner, looked up): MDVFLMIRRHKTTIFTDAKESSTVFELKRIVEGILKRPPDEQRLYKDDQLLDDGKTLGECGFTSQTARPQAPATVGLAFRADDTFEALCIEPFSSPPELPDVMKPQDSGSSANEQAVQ
Sequence of VHL co-expressed with Elongins B and C (Q15369 whole entry partner, looked up): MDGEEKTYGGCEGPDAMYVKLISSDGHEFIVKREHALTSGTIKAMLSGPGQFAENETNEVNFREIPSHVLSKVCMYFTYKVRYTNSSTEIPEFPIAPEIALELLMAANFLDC
Sequence of VHL Elongin B/C complex (P40337 whole entry, looked up, the tested form may be a part): as the sequence (P40337 whole entry, looked up) above
Sequence of VHL Elongin B/C complex (Q15370 whole entry partner, looked up, the tested form may be a part): as the sequence (Q15370 whole entry partner, looked up) above
Sequence of VHL Elongin B/C complex (Q15369 whole entry partner, looked up, the tested form may be a part): as the sequence (Q15369 whole entry partner, looked up) above
Sequence of NanoLuc VHL fusion protein (P40337 whole entry, looked up, the tested form may be a part): as the sequence (P40337 whole entry, looked up) above
Sequence of NanoLuc VHL fusion protein (Q15370 whole entry partner, looked up, the tested form may be a part): as the sequence (Q15370 whole entry partner, looked up) above
Sequence of NanoLuc VHL fusion protein (Q15369 whole entry partner, looked up, the tested form may be a part): as the sequence (Q15369 whole entry partner, looked up) above

## Cc1ncsc1-c1ccc([C@]2(C)NC(C3C[C@@H](O)CN3C(=O)[C@@H]3CCCCN3S(C)(=O)=O)=NC2=O)cc1 (single isomer, unassigned) [Example 122.1]
[1]
  IC50: ≥ 400 µM
[2]
  Kd: ≥ 150 µM
[3]
  IC50: 100 µM

## CC(=O)N1CCCCC1C(=O)N1C[C@H](O)CC1C1=NC(=O)[C@](C)(c2ccc(-c3scnc3C)cc2)N1 (single isomer, unassigned) [Example 124.3]
[1]
  IC50: ≥ 400 µM
[2]
  Kd: ≥ 150 µM
[3]
  IC50: 100 µM

## Cc1cc(C(C(=O)N2C[C@H](O)C[C@H]2C2=NO[C@](C)(c3ccc(-c4ccccc4F)cc3)N2)C(C)C)on1 (single isomer, unassigned) [Example 139.2]
[1]
  IC50: 0.0628 µM
[3]
  IC50: 0.0678 µM

## C#Cc1cccc(Nc2ncnc3cc(OCCOC)c(OCCOCC#CC#CCOc4cc(C(C(=O)N5C[C@H](O)CC5C5=NC(=O)[C@](C)(c6ccc(-c7scnc7C)cc6)N5)C(C)C)on4)cc23)c1 (single isomer, unassigned) [Example 1004.4]
[1]
  IC50: 6.25 µM
[3]
  IC50: ≥ 100 µM

## Cc1cc([C@H](C(=O)N2C[C@H](O)CC2C2=NOC3(CCCc4ccccc43)N2)C(C)C)on1 (single isomer, unassigned) [Example 131.4]
[1]
  IC50: 19.9 µM
[3]
  IC50: 20 µM

## C#Cc1cccc(Nc2ncnc3cc(OCCOC)c(OCCOCC#CC#CCOc4cc(C(C(=O)N5C[C@H](O)CC5C5=NC(=O)[C@](C)(c6ccc(-c7scnc7C)cc6)N5)C(C)C)on4)cc23)c1 (single isomer, unassigned) [Example 1004.2]
[1]
  IC50: 75.8 µM
[3]
  IC50: 46.4 µM

## Cc1cc(C(C(=O)N2C[C@H](O)CC2C2=NS(=O)(=O)CN2)C(C)C)on1 (single isomer, unassigned) [Example 137.3]
[1]
  IC50: ≥ 400 µM
[3]
  IC50: ≥ 100 µM

## Cc1cc(C(C(=O)N2C[C@H](O)CC2C2=NS(=O)(=O)CN2)C(C)C)on1 (single isomer, unassigned) [Example 137.2]
[1]
  IC50: 47.3 µM
[3]
  IC50: ≥ 100 µM

## C#Cc1cccc(Nc2ncnc3cc(OCCOC)c(OCCOCC#CC#CCOc4cc(C(C(=O)N5C[C@H](O)CC5C5=NC(=O)[C@](C)(c6ccc(-c7scnc7C)cc6)N5)C(C)C)on4)cc23)c1 (single isomer, unassigned) [Example 1004.1]
[1]
  IC50: 6.25 µM
[3]
  IC50: 68.3 µM

## Cc1cc(C(C(=O)N2C[C@H](O)CC2C2=NC(=O)C(C)(c3ccc(-c4cccc(=O)n4C)cc3)N2)C(C)C)on1 (single isomer, unassigned) [Example 108.3]
[1]
  IC50: > 400 µM
[2]
  Kd: > 0.3 µM

## Cc1cc([C@H](C(=O)N2C[C@H](O)CC2C2=NOC3(CCCc4ccccc43)N2)C(C)C)on1 (single isomer, unassigned) [Example 131.3]
[1]
  IC50: 19.6 µM
[3]
  IC50: 23 µM

## Cc1cc(C(C(=O)N2C[C@H](O)CC2C2=NC(=O)C(C)(c3ccc(Br)cc3)N2)C(C)C)on1 (single isomer, unassigned) [Example 103.1]
[1]
  IC50: > 400 µM
[2]
  Kd: > 150 µM

## Cc1cc(C(C(=O)N2C[C@H](O)CC2C2=NC(=O)C(C)(c3ccc(Br)cc3)N2)C(C)C)on1 (single isomer, unassigned) [Example 103.2]
[1]
  IC50: > 400 µM
[2]
  Kd: > 150 µM

## Cc1cc(C(C(=O)N2C[C@H](O)C[C@H]2C2=NO[C@](C)(c3ccc(-c4ccccc4F)cc3)N2)C(C)C)on1 (single isomer, unassigned) [Example 139.1]
[1]
  IC50: 10 µM
[3]
  IC50: 21.7 µM

## Cc1cc([C@@H](C(=O)N2C[C@H](O)CC2C2=NOC3(CCCc4ccccc43)N2)C(C)C)on1 (single isomer, unassigned) [Example 131.2]
[1]
  IC50: 242 µM
[3]
  IC50: 100 µM

## C#Cc1cccc(Nc2ncnc3cc(OCCOC)c(OCCOCC#CC#CCOc4cc(C(C(=O)N5C[C@H](O)CC5C5=NC(=O)[C@](C)(c6ccc(-c7scnc7C)cc6)N5)C(C)C)on4)cc23)c1 (single isomer, unassigned) [Example 1004.3]
[1]
  IC50: 75.8 µM
[3]
  IC50: ≥ 100 µM

## Cc1cc(C(C(=O)N2C[C@H](O)CC2C2=NC(=O)C(C)(c3ccc(-c4cccnc4C)cc3)N2)C(C)C)on1 (single isomer, unassigned) [Example 106.1]
[1]
  IC50: > 400 µM
[2]
  Kd: > 150 µM

## Cc1cc(C(C(=O)N2C[C@H](O)CC2C2=NS(=O)(=O)CN2)C(C)C)on1 (single isomer, unassigned) [Example 137.1]
[1]
  IC50: ≥ 400 µM
[3]
  IC50: ≥ 100 µM

## Cc1cc(C(C(=O)N2C[C@H](O)CC2C2=NC(=O)C(C)(c3ccc(-c4cccnc4C)cc3)N2)C(C)C)on1 (single isomer, unassigned) [Example 106.2]
[1]
  IC50: > 400 µM
[2]
  Kd: > 150 µM

## Cc1cc([C@@H](C(=O)N2C[C@H](O)CC2C2=NOC3(CCCc4ccccc43)N2)C(C)C)on1 (single isomer, unassigned) [Example 131.1]
[1]
  IC50: 160 µM
[3]
  IC50: 100 µM

## Cc1cc(C(C(=O)N2C[C@H](O)CC2C2=NC(=O)C(C)(c3ccc(-c4scnc4C)cc3)N2)C(C)C)on1 (single isomer, unassigned) [Example 104.2]
[1]
  IC50: > 400 µM
[2]
  Kd: > 150 µM

## Cc1cc(C(C(=O)N2C[C@H](O)CC2C2=NC(=O)C(C)(c3ccc(Br)cc3)N2)C(C)C)on1 (single isomer, unassigned) [Example 103.3]
[1]
  IC50: 292 µM
[2]
  Kd: > 150 µM

## Cc1cc([C@@H](C(=O)N2C[C@H](O)C[C@H]2C2=NOC(c3ccc(Br)cc3)(C(F)(F)F)N2)C(C)C)on1 (single isomer, unassigned) [Example 133.2]
[1]
  IC50: ≥ 400 µM
[2]
  Kd: ≥ 150 µM

## Cc1cc(C(C(=O)N2C[C@H](O)CC2C2=NC(=O)C(C)(C)N2)C(C)C)on1 (single isomer, unassigned) [Example 107.2]
[1]
  IC50: 24.1 µM
[2]
  Kd: 14.9 µM

— US11242344B2, “(4-hydroxypyrrolidin-2-yl)-heterocyclic compounds and methods of use thereof” (Genentech, Inc., priority 2017, dated 2022)
